Measured values: patent publication US10145851B2, “Discovery and validation of cancer biomarkers using a protein analysis methodology to analyze specimens” (The Board of Trustees of the Leland Stanford Junior …, priority 2009, dated 2018)
“Also recorded” adds a separate entry of the source. Where a name gives a salt, the structure may show the parent alone.

Columns and labels:
[1] = test system: human leukemic cell line TF1; assay: NIA of TF1 cells before and after treatment with ON01910; assay type: cell-based
Protocol: Using a single antibody that recognizes both the phosphorylated and unphosphorylated isoforms of ERK, we can determine levels of each ERK isoform, and also percent phosphorylation of ERK. […] To determine if NIA can measure signaling changes during treatment with novel drugs, human leukemic cells were treated with a PLK-1 inhibitor, ON01910 (Onconova, Inc). […] MEK2 phosphorylation decreased by 20% after ON01910 treatment. […] Treatment with ON01910 altered phosphorylation of signaling proteins in TF1 cells.

[2] = test system: phosphorylation of STAT3/5; assay: NIA/FACS of tumor cells of lymphoma patients treated with atorvastatin; assay type: in vivo, human
Excerpt: FIG. 5A-5C. NIA detected decrease in oncoproteins upon treatment with biologic response modifying therapeutic agent. (FIG. 5A) Schematic for the use of NIA to assess proteomic changes in clinical tumor specimens. Patients undergo pretreatment tumor sampling at baseline and again after 8 d of treatment with atorvastatin. (FIG. 5B) NIA analysis of tumor cells for changes in pSTAT3 and pSTAT5. (FIG. 5C) NIA quantification of pSTAT3 and pSTAT5±s.e.m. Samples were run in triplicate.
Predicted pl's were calculated using Scansite.
Phosphorylation of STAT3/5 decreased in lymphoma patients treated with atorvastatin. Tumor cells were sampled from lymphoma patients day 1 and day 8 of atorvastatin treatment.

mouse model of lymphoma = details: associated with specific changes in oncoprotein signaling; cited from earlier work
K562 human CML cell line = assay: NIA of K562 CML cells treated with imatinib in vitro; assay type: cell-based; set-up: activated caspase-3 associated with apoptosis: dose or concentration left out as unconfirmed
Protocol: The NIA experiments were performed using a Firefly™ or CB1000™ instrument (Cell Biosciences). Briefly, for each capillary analysis, 4 nanoliters of 10 mg/ml lysate were diluted to 0.2 mg/ml in 200 nanoliters HNG-based lysis buffer [20 mM Hepes pH 7.5, 25 mM NaCl, 0.1%, 10% glycerol, Sigma Phosphatase Inhibitor Cocktail 1, Calbiochem Protease Inhibitor] or 200 nanoliters Bicine/CHAPS lysis buffer. 200 nanoliters sample mix containing internal pl standards were added. The Firefly system first performed a charge-based separation (isoelectric focusing) in a 5 cm long, 100 micron inner-diameter capillary. Predicted pl's were calculated using Scansite. Each sample was run on a panel of different pH gradients (3-10, 5-9) to optimize the resolution of different peak patterns. After separation and photo-activated in-capillary immobilization, proteins were detected with antibodies: MYC protein expression was detected using the C-19 rabbit polyclonal antibody that recognizes mouse and human MYC (Santa Cruz Biotechnology). BCL2 protein expression was detected using the clone 124 mouse monoclonal antibody that recognizes human BCL2 (Dako Laboratories). Total ERK1/2 protein expression was detected using a rabbit polyclonal antibody that recognizes mouse and human ERK1/2 (Upstate). Phospho-ERK 1/2 protein expression was detected using a mouse monoclonal antibody that recognizes both mouse and human pERK 1/2 (Cell Signaling). Additional antibodies used were: activated caspase 3 (Cell Signaling), MEK1 (Upstate), pMEK1 (Novus), MEK2 (Abcam), pSTAT3 (Cell Signaling), pSTAT5 (Cell Signaling), pJNK (Cell Signaling), HSP70 (Novus).
Quantitation of the peaks is performed using peak analysis software. The start and end of each peak, and a flat baseline were manually selected. The area of each peak was calculated by dropping verticals to the baseline at the peak start and end, and summing the area between the start and endpoints. […] The areas under different peaks within a single tracing represented various ERK isoforms. […]

[3] = TF1 cells after 24 hr of treatment

COc1cc(OC)c(/C=C/S(=O)(=O)Cc2ccc(OC)c(NCC(=O)O)c2)c(OC)c1 [ON01910]
MEK2 phosphorylation decrease ([1]; TF1 cell line after ON01910 treatment): 20% | phosphorylation of JNK [1, 3]: increased phosphorylation | phosphorylation of MEK2 [1, 3]: decreased phosphorylation

CC(C)c1c(C(=O)Nc2ccccc2)c(-c2ccccc2)c(-c2ccc(F)cc2)n1CC[C@@H](O)C[C@@H](O)CC(=O)O [atorvastatin]
phosphorylation of STAT3/5 ([2]; after eight days of treatment, NIA): detectable decreases; also recorded: decreased | STAT3 and STAT5 phosphorylation in CD20 positive cells ([2]; day 1 and day 8 of treatment, NIA and FACS): dramatic decrease | tumor regression (mouse model of lymphoma): causes tumor regression

Cc1ccc(NC(=O)c2ccc(CN3CCN(C)CC3)cc2)cc1Nc1nccc(-c2cccnc2)n1 [imatinib, imatinib mesylate]
phosphorylation of STAT3/5, JNK, MEK1 and MEK2 (K562 human CML cell line; K562, imatinib final concentration 10 mM in vitro, 0 h, 4 h and 20 h): changes in phosphorylation | activated caspase-3 associated with apoptosis (K562 human CML cell line; K562, imatinib in vitro, 0 h, 4 h and 20 h): expected increase | specific ERK2 phospho-isomer (peak 3) (K562 human CML cell line; K562, imatinib in vitro, 24 hours): decrease; also recorded: change in phospho-ERK
